Assay results published in patent US20040067889A1, “Stabilization of brain natriuretic peptide (BNP) in blood samples, methods and compositions related thereto” (priority 2002, published 2004).

Test system: endogenous proteases
Assay: Stability of synthetic BNP-32 spiked into normal human plasma with protease inhibitors (chemiluminescent BNP immunoassay)
Format: biochemical
Details: for efficacy in stabilizing BNP (in words): Table 11, inhibitors at usual functional concentrations

Molecule | % Recovery vs 1st run (Time 0) [%] | BNP, 1st run (Time 0) [pg/mL] | BNP, 3 hours at 4° C. [pg/mL] | BNP, 17 hours at 4° C. [pg/mL] | BNP, 40 hours at 4° C. [pg/mL] | BNP, 6 days at 4° C. [pg/mL] | efficacy in stabilizing BNP (in words)
NC(N)=NCCC[C@H](NC(=O)[C@@H]1CCCN1C(=O)[C@H](N)Cc1ccccc1)C(=O)CCl [PPRACK, D-Phe-Pro-Arg-chloromethylketone] | 100.5 | 892.0 | 894.6 | 957.6 | 939.7 | 896.2 | act as efficiently as antipain, leupeptin and PPACK
Aprotinin | 21.1 | 792.4 | 849.7 | 680.0 | 490.9 | 167.4 | low efficacy
